Data set [1] relates to organoids having G12D mutation of Kras gene. The data set is described as follows: Apoptosis in pancreatic organoids. The format is cell-based, mouse. Particulars: treatment repeated after 72 hr, read 12 hr after final treatment. The procedure: In detail, as an alternative to a pancreatic tissue of a wild-type mouse and an individual with cancer, a pancreatic tissue having G12D mutation of Kras gene was obtained from a transgenic mouse, and the pancreatic tissue was dissociated with a dissociation solution, filtered. Then, a cell pellet containing ductal cells was collected by centrifugation, and incubated with a biological substrate material. The dissociation solution containing Hank's Balanced Salt Solution (HBSS) (3 ml), collagenase P (5 mg/ml), and DNase 1 (1 Units/μl) was used in a volume of 3 ml per pancreatic tissue (Vpan=about 1.08 mg/mm^3). When the collected cell pellet was incubated with the biological substrate material, three-dimensional pancreatic organoids were prepared by incubation under conditions of 37° C. and 5% CO2 with Matrigel which is a gelatinous protein mixture secreted from the murine Engelbreth-Holm-Swarm (EHS) sarcoma. Resveratrone and resveratrone glucoside were treated using DMSO as a solvent to reach a specific concentration with respect to the culture. After 72 hr, the medium was replaced by a fresh culture medium, and the above treatment was repeated. 12 hr after final treatment, changes of the organoids were recorded using an inverted fluorescence microscope (available from Zeiss) capable of photographing […] fluorescence. […]

Data set [2] concerns MCF10A. Nature of the data set: Annexin V FACS apoptosis measurement. The format is cell-based. Particulars: MCF10A normal cell, 24 hours. The procedure: (§1) Cancer cell apoptotic effects of resveratrone and resveratrone glucoside (see U.S. Pat. No. 9,708,23762) were measured by FACS using Annexin-V binding to phosphatidiylserine (PS) which exists in the inner leaflet of the cytoplasmic membrane and is exposed to the outer leaflet of cell membrane during apoptosis.
(§2) In detail, apoptosis of normal cells or cancer cells, each treated with resveratrone or resveratrone glucoside, was evaluated by measuring signals of Alexa dye-conjugated annexin V using FACS. HeLa, MCF7, SW480, SW620, and HCC1954 which are cancer cells, and NIH3T3 and MCF10A which are normal cells, each treated with 50 μM resveratrone or 100 μM resveratrone glucoside, were cultured under conditions of 37° C. and 5% CO2 for 24 hours. Thereafter, media was removed, and the cells were washed with PBS buffer twice to remove remaining resveratrone or resveratrone glucoside. The cells were collected and centrifuged to remove supernatants. Annexin-bound buffer (10 mM HEPES, 140 mM NaCl, 2.5 mM CaCl2, pH 7.4) was added and resuspended. 5 μl of Alexa Fluor 647-conjugated annexin V was added to the resuspended cells at the cell volume of 100 μl, followed by incubation for 15 minutes. 1 ml of binding buffer was added to the incubated cells, followed by centrifugation. The supernatant was removed to remove remaining Alexa Fluor 647-conjugated annexin V. Thereafter, 500 μl of annexin-binding buffer was further added, and cells were passed through a cell strainer cap and stored in a round-bottom tube.

Data set [3] relates to MCF7. Nature of the data set: Annexin V FACS apoptosis measurement. Conditions: MCF7 cancer cell, 24 hours. It counts as cell-based. As for the experimental part: as §1, §2
For data set [4], the system named is NIH3T3. The data set is described as follows: Annexin V FACS apoptosis measurement. It counts as cell-based. Particulars: NIH3T3 normal cell, 50 μM resveratrone, 24 hours. The procedure:
as §1, §2

Data set [5] relates to SW620. The data set is described as follows: Annexin V FACS apoptosis measurement. The format is cell-based. Particulars: SW620 cancer cell, 50 μM resveratrone, 24 hours. As for the experimental part:
as §1, §2

Data set [6] concerns HeLa. The data set is described as follows: Annexin V FACS apoptosis measurement. It counts as cell-based. Conditions: HeLa cancer cell, 50 μM resveratrone, 24 hours. The procedure: as §1, §2
Data set [7] concerns SW480. Nature of the data set: Annexin V FACS apoptosis measurement. It counts as cell-based. Conditions: SW480 cancer cell, 50 μM resveratrone, 24 hours. The procedure: as §1, §2
The test system of data set [8] is HCC1954. The data set is described as follows: Annexin V FACS apoptosis measurement. The format is cell-based. Particulars: HCC1954 cancer cell, 50 μM resveratrone, 24 hours. The procedure:
as §1, §2

Data set [9] relates to cancer cell MCF7. Nature of the data set: Western blotting for cleaved parp. Conditions: MCF7, 50 μM, 48 hours. The format is cell-based. The procedure:
(§3) In detail, a cancer cell MCF7 and a normal cell MCF10A were treated with 50 μM of resveratrone, respectively, and incubated for 48 hours. The incubated cells were harvested and lysed with a NETN buffer (150 mM NaCl, 20 mM Tris/Cl pH 8.0, 0.5% v/v NP-40, 1 mM EDTA) containing a protease inhibitor, and then conjugated with a cleaved parp antibody, and sequentially, with a secondary antibody. Then, the presence or absence thereof was examined.
(A western blot detects proteins with antibodies after separation by electrophoresis.)

For data set [10], the system named is normal cell MCF10A. Nature of the data set: Western blotting for cleaved parp. The format is cell-based. Conditions: 50 μM, 48 hours. The procedure: as §3
The test system of data set [11] is zebrafish embryos. Nature of the data set: Cytotoxicity and fluorescence in zebrafish embryos. It counts as in vivo. Conditions: 300 μM, observed at 2 hr, 20 hr, 48 hr, 72 hr. As for the experimental part:
In detail, zebrafish embryos (donated by Hyunsook Lee Lab, School of Biological Sciences, Seoul National University) were cultured, and treated with 300 μM of resveratrone or resveratrone glucoside. At 2 hr, 20 hr, 48 hr, and 72 hr after treatment, their changes were observed.

For data set [12], the system named is cancer cell MCF7. Nature of the data set: TUNEL assay. The format is cell-based. Conditions: MCF7, 50 μM, 24 hours. As for the experimental part: (§4) In detail, a cancer cell MCF7 and a normal cell MCF10A were treated with 50 μM of resveratrone or resveratrone glucoside, respectively, and incubated for 24 hours. Thereafter, the cells were treated with 0.5% PBS-Triton X-100 and incubated for 10 minutes to increase cell permeability. The cells were treated with terminal deoxynucleotide transferase and tetra-methyl-rhodamine dUTP, followed by incubation at 37° C. for 1 hour. Next, the cells were washed with PBS three times, and treated with DAPI dye for nuclear counterstaining. Apoptotic signals were observed using fluorescence images.

The test system of data set [13] is normal cell MCF10A. Nature of the data set: TUNEL assay. The format is cell-based. Conditions: 50 μM, 24 hours. The procedure: as §4
Data set [14] relates to cancer cell MCF7. The data set is described as follows: Cell morphology by optical microscopy. The format is cell-based. Conditions: MCF7, 50 μM, 48 hours. The procedure:
(§5) In detail, a normal cell MCF10A and a cancer cell MCF7 were treated with 50 μM of resveratrone, respectively, and incubated for 48 hours. After incubation, media was removed, and the cells were washed with PBS buffer three times. Changes of cell morphology in PBS buffer were observed and compared by optical microscopy.

The test system of data set [15] is normal cell MCF10A. Nature of the data set: Cell morphology by optical microscopy. It counts as cell-based. Conditions: 50 μM, 48 hours. The procedure:
as §5

The test system of data set [16] is cancer cells. The data set is described as follows: Annexin V FACS, apoptotic cells in cancer cells compared with normal cells. The format is cell-based. Particulars: 100 μM resveratrone glucoside, 24 hours. As for the experimental part: as §1
as §2, with “The supernatant was removed to remove remaining Alexa Fluor 647-conjugated annexin V. Thereafter, 500 μl of annexin-binding buffer was further added, and cells were passed through a cell strainer cap and stored in a round-bottom tube.” left out

The text below walks through data of US20210177992A1, “ANTICANCER FLUORESCENT SUBSTANCE DERIVED FROM NATURAL MATERIALS” (SEOUL NATIONAL UNIVERSITY R&DB FOUNDATION, priority 2017, published 2021).

Take `CC(=O)/C=C/c1ccc2cc(O)cc(O)c2c1` [resveratrone]: the “apoptosis induction in organoids” value in data set [1] is “showed apoptosis induction”. The “Apoptotic fraction (%)” value amounted to 1.0% in data set [2] (50 μM resveratrone); 26.0% in data set [3] (50 μM resveratrone); 2.0% in [4]; 17.4% in data set [5]; 20.0% in [6]; 15.5% in data set [7]. Further, the “Apoptotic fraction (%)” value in [8] came out at 39.3%. The Cleaved parp presence result in [9] was “observed in the resveratrone-treated cancer cells”; in [10], “not observed in the resveratrone-treated normal cells”. In addition, the “cytotoxicity during development of zebrafish embryos” value in [11] is listed as “induced no cytotoxicity”. Besides, the TUNEL apoptotic signals result was “observed only in the cancer cell MCF7” in data set [12] and “no effect on normal cells” in data set [13]. Moreover, the results for the “Changes of cell morphology” value in data set [14] and in data set [15] were “showed morphological features of apoptosis” and “clearly observed irrespective of treatment with resveratrone”, respectively.
Regarding `CC(=O)/C=C/c1ccc2cc(O[C@@H]3OC(CO)[C@@H](O)C(O)C3O)cc(O)c2c1` (stereo partly drawn) [resveratrone glucoside], in [16], the “increase of number of apoptotic cells in cancer cells as compared with normal cells” value was “about 22 times”. Moreover, the “Apoptotic fraction (%)” value worked out at 0.7% in [2] (100 μM resveratrone glucoside) and 15.5% in data set [3] (100 μM resveratrone glucoside). Also, the “cytotoxicity during development of zebrafish embryos” value in data set [11] is listed as “induced no cytotoxicity”. The TUNEL apoptotic signals result was “observed only in the cancer cell MCF7” in data set [12] and “no effect on normal cells” in [13].
